Experimental data taken from patent US20260200946A1, “KRAS(G12V) INHIBITORS” (Ranok Therapeutics (Hangzhou) Co. Ltd., priority 2022, published 2026).

Columns and labels:
[1] = molecular target: T1, KRAS(G12V)/SOS1 (Homo sapiens, UniProt P01116, G12V); assay: KRAS(G12V)/SOS1 homogeneous time-resolved fluorescence (HTRF) assay; assay type: binding; details: absence of GTP; 4° C., 3 hours; read-out: HTRF of KRASG12V-SOS1
T1 construct: purchased Cisbio 63ADK000CB18PEH
Method: Binding of test compounds to KRAS(G12V) target protein, which in turn blocks KRAS(G12V) interaction with the SOS1 protein, was measured in the absences of GTP by homogeneous time-resolved fluorescence using the KRAS-G12V/SOS1 Binding Assay Kit (Cisbio, 63ADK000CB18PEH), following the manufacturer's instructions, except as noted. 3-fold serial dilutions of each test compound were prepared ranging from 20 µM to 1.02 nM. The test compound was mixed and incubated with reaction components, incubated in a sealed plate at 4° C. for 3 hours and fluorescence was measured using a PerkinElmer Envision plate reader. The KRAS(G12V)-SOS1 IC50 values (the concentration of 50% of the maximal inhibition) were calculated using GraphPad Prism 8.0 software.

[2] = test system: NCIH727 cells; assay: Cancer cell line proliferation (CellTiter-Glo), NCI-H727; assay type: cell-based; details: Homo sapiens, 72 h, NCIH727 lung carcinoid, heterozygous G12V
Outline: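 NCI-H727 cells (1,000/well) were grown 72 h at 37 °C/5% CO2, then exposed to compound at various concentrations (0.5% DMSO final) for a further 72 h. Viability was read by CellTiter-Glo luminescence, and IC50 values were calculated from the dose-response.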

[3] = test system: SW620 cells; assay: Cancer cell line proliferation (CellTiter-Glo), SW620; assay type: cell-based; details: Homo sapiens, SW-620, SW620 colorectal adenocarcinoma, homozygous G12V, 72 hr
Method: Cell lines were cultured essentially according to ATCC recommendations. SW620 and NCIH727 cells were plated in 384-well tissue culture plates at 1,000 cells/well and incubated at 37° C./5% CO2 for 72 hr in 40 μl of media. […] Each cell line was then treated with test compounds at various concentrations with a final concentration of 0.5% DMSO/well, and then incubated at 37° C./5% CO2 for 72 hr. 40 μl of CellTiter-Glo® Reagent (Promega Corporation, Madison, WI) was added to each well and processed according manufacturer's protocol. Results were analyzed and IC50 values were calculated in GraphPad 8.0 software.

T1 sequence (P01116 1-188 isoform P01116-2 G12V): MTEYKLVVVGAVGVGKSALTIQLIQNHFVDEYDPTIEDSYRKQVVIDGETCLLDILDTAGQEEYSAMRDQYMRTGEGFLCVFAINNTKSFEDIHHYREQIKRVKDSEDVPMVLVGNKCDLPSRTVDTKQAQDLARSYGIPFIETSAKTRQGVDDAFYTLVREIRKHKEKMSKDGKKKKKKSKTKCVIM

SMILES	IC50 [1] [nM]	EC50 [2] [nM]	EC50 [3] [nM]
C#Cc1c(F)ccc2cc(O)cc(-c3ncc4c(N5CC6CCC(C5)N6C(=O)NC(C)C(F)(F)F)nc(OCC5(CN6CCC(F)CC6)CC5)nc4c3F)c12 (stereo not drawn) [Example 32]	100 to 1000	> 1000	> 1000
C#Cc1c(F)ccc2cc(O)cc(-c3ncc4c(N5CC6CCC(C5)N6C(=O)OC(C)(C)C)nc(OCC5(CN6CCC(F)CC6)CC5)nc4c3F)c12 [Example 40]	100 to 1000	> 1000	> 1000
C#Cc1c(F)ccc2cc(O)cc(-c3ncc4c(N5CC6CCC(C5)N6C(=O)N5CCC5)nc(OCC5(CN6CCC(F)CC6)CC5)nc4c3F)c12 [Example 18]	100 to 1000	> 1000	> 1000
C#Cc1c(F)ccc2cc(O)cc(-c3ncc4c(N5CC6CCC(C5)N6C(C)=O)nc(OCC5(CN6CCC(F)CC6)CC5)nc4c3F)c12 [Example 41]	100 to 1000	> 1000	> 1000
C#Cc1c(F)ccc2cc(O)cc(-c3ncc4c(N5CC6CCC(C5)N6CC)nc(OCC5(CN6CCC(F)CC6)CC5)nc4c3F)c12 [Example 31]	100 to 1000	> 1000	> 1000
C#Cc1c(F)ccc2cc(O)cc(-c3nc(OC)c4c(N5CC6CCC(C5)N6C(=O)C5(C(F)(F)F)CC5)nc(OCC5(CN6CCC(F)CC6)CC5)nc4c3F)c12 [Example 45]	< 100	> 1000	> 1000
C#Cc1c(F)ccc2cc(O)cc(-c3ncc4c(N5CC6CCC(C5)N6C(=O)NC5(C#N)CC5)nc(OCC5(CN6CCC(F)CC6)CC5)nc4c3F)c12 [Example 35]	100 to 1000	100 to 1000	100 to 1000
C#Cc1c(F)ccc2cc(O)cc(-c3ncc4c(N5CC6CCC(C5)N6C(=O)NC5CCCC5)nc(OCC5(CN6CCC(F)CC6)CC5)nc4c3F)c12 [Example 48]	< 100	> 1000	> 1000
C#Cc1c(F)ccc2cc(O)cc(-c3ncc4c(N5CC6CCC(C5)N6C(=O)OCC(C)C)nc(OCC5(CN6CCC(F)CC6)CC5)nc4c3F)c12 [Example 16]	100 to 1000	> 1000	> 1000
C#Cc1c(F)ccc2cc(O)cc(-c3ncc4c(N5CC6CCC(C5)N6C(=O)NC(=O)C(C)(C)C)nc(OCC5(CN6CCC(F)CC6)CC5)nc4c3F)c12 [Example 17]	100 to 1000	> 1000	> 1000
C#Cc1c(F)ccc2cc(O)cc(-c3nc(OC)c4c(N5CC6CCC(C5)N6C(=O)NC5CC5)nc(OCC5(CN6CCC(F)CC6)CC5)nc4c3F)c12 [Example 46]	< 100	100 to 1000	100 to 1000
C#Cc1c(F)ccc2cc(O)cc(-c3ncc4c(N5CC6CCC(C5)N6C(=O)C(C)(C)C)nc(OCC5(CN6CCC(F)CC6)CC5)nc4c3F)c12 [Example 43]	100 to 1000	> 1000	> 1000
C#Cc1c(F)ccc2cc(O)cc(-c3ncc4c(N5CC6CCC(C5)N6C(=O)NC(C)(C)C)nc(OCC5(CN6CCC(F)CC6)CC5)nc4c3F)c12 [Example 6]	< 100	100 to 1000	100 to 1000
C#Cc1c(F)ccc2cc(O)cc(-c3ncc4c(N5CC6CCC(C5)N6C(=O)NC5CCNC5)nc(OCC5(CN6CCC(F)CC6)CC5)nc4c3F)c12 (stereo not drawn) [Example 49]	< 100	> 1000	> 1000
C#Cc1c(F)ccc2cc(O)cc(-c3nc(OC)c4c(N5CC6CCC(C5)N6C(=O)NC5(C#N)CC5)nc(OCC5(CN6CCC(F)CC6)CC5)nc4c3F)c12 [Example 34]	100 to 1000	100 to 1000	100 to 1000
C#Cc1c(F)ccc2cc(O)cc(-c3ncc4c(N5CC6CCC(C5)N6C(=O)NC#N)nc(OCC5(CN6CCC(F)CC6)CC5)nc4c3F)c12 [Example 29]	100 to 1000	> 1000	> 1000
C#Cc1c(F)ccc2cc(O)cc(-c3ncc4c(N5CC6CCC(C5)N6C(=O)CC5CC5)nc(OCC5(CN6CCC(F)CC6)CC5)nc4c3F)c12 [Example 27]	100 to 1000	> 1000	> 1000

SMILES	IC50 [1] [nM]	EC50 [2] [nM]	EC50 [3] [nM]
C#Cc1c(F)ccc2cc(O)cc(-c3ncc4c(N5CC6CCC(C5)N6C(=O)OCC)nc(OCC5(CN6CCC(F)CC6)CC5)nc4c3F)c12 [Example 11]	100 to 1000	100 to 1000	100 to 1000
C#Cc1c(F)ccc2cc(O)cc(-c3ncc4c(N5CC6CCC(C5)N6C(=O)c5c[nH]cn5)nc(OCC5(CN6CCC(F)CC6)CC5)nc4c3F)c12 [Example 30]	100 to 1000	> 1000	> 1000
C#Cc1c(F)ccc2cc(O)cc(-c3ncc4c(N5CC6CCC(C5)N6S(=O)(=O)NC(C)C)nc(OCC5(CN6CCC(F)CC6)CC5)nc4c3F)c12 [Example 25]	100 to 1000	> 1000	> 1000
C#Cc1c(F)ccc2cc(O)cc(-c3ncc4c(N5CC6CCC(C5)N6C(=O)c5nnn[nH]5)nc(OCC5(CN6CCC(F)CC6)CC5)nc4c3F)c12 [Example 28]	100 to 1000	> 1000	> 1000
C#Cc1c(F)ccc2cc(O)cc(-c3ncc4c(N5CC6CCC(C5)N6C(=O)CC(F)(F)F)nc(OCC5(CN6CCC(F)CC6)CC5)nc4c3F)c12 [Example 39]	100 to 1000	> 1000	> 1000
C#Cc1c(F)ccc2cc(O)cc(-c3ncc4c(N5CC6CCC(C5)N6S(=O)(=O)CC#N)nc(OCC5(CN6CCC(F)CC6)CC5)nc4c3F)c12 [Example 33]	100 to 1000	> 1000	> 1000
C#Cc1c(F)ccc2cc(O)cc(-c3nc(OC)c4c(N5CC6CCC(C5)N6C(=O)C5CC5)nc(OCC5(CN6CCC(F)CC6)CC5)nc4c3F)c12 [Example 50]	< 100	> 1000	> 1000
C#Cc1c(F)ccc2cc(O)cc(-c3ncc4c(N5CC6CCC(C5)N6C(=O)CC#N)nc(OCC5(CN6CCC(F)CC6)CC5)nc4c3F)c12 [Example 2]	< 100	100 to 1000	100 to 1000
C#Cc1c(F)ccc2cc(O)cc(-c3ncc4c(N5CC6CCC(C5)N6S(=O)(=O)CC(C)C)nc(OCC5(CN6CCC(F)CC6)CC5)nc4c3F)c12 [Example 14]	100 to 1000	> 1000	100 to 1000
C#Cc1c(F)ccc2cc(O)cc(-c3nc(OC)c4c(N5CC6CCC(C5)N6C(=O)NC(C)(C)C)nc(OCC5(CN6CCC(F)CC6)CC5)nc4c3F)c12 [Example 21]	< 100	100 to 1000	100 to 1000
C#Cc1c(F)ccc2cc(O)cc(-c3nc(OC)c4c(N5CC6CCC(C5)N6C(=O)C5CC5(F)F)nc(OCC5(CN6CCC(F)CC6)CC5)nc4c3F)c12 (stereo not drawn) [Example 44]	< 100	100 to 1000	100 to 1000
C#Cc1c(F)ccc2cc(O)cc(-c3ncc4c(N5CC6CCC(C5)N6C(=O)NC5(C(F)(F)F)CC5)nc(OCC5(CN6CCC(F)CC6)CC5)nc4c3F)c12 [Example 51]	< 100	> 1000	> 1000
C#Cc1c(F)ccc2cc(O)cc(-c3ncc4c(N5CC6CCC(C5)N6C(=O)N5CC(OC)C5)nc(OCC5(CN6CCC(F)CC6)CC5)nc4c3F)c12 [Example 24]	100 to 1000	> 1000	> 1000
C#Cc1c(F)ccc2cc(O)cc(-c3nc(OC)c4c(N5CC6CCC(C5)N6C(=O)NC#N)nc(OCC5(CN6CCC(F)CC6)CC5)nc4c3F)c12 [Example 23]	100 to 1000	> 1000	> 1000
C#Cc1c(F)ccc2cc(O)cc(-c3nc(OC)c4c(N5CC6CCC(C5)N6C(=O)NC(C)C#N)nc(OCC5(CN6CCC(F)CC6)CC5)nc4c3F)c12 (stereo not drawn) [Example 38]	< 100	100 to 1000	100 to 1000
C#Cc1c(F)ccc2cc(O)cc(-c3ncc4c(N5CC6CCC(C5)N6C(=O)N(C)C)nc(OCC5(CN6CCC(F)CC6)CC5)nc4c3F)c12 [Example 8]	< 100	> 1000	> 1000
C#Cc1c(F)ccc2cc(O)cc(-c3ncc4c(N5CC6CCC(C5)N6C(=O)NC(C)C)nc(OCC5(CN6CCC(F)CC6)CC5)nc4c3F)c12 [Example 7]	< 100	> 1000	> 1000
